Test results published in patent US10639371B2, “Thermoresponsive bioconjugates and their controlled delivery of cargo” (University of Delaware, priority 2015, dated 2020).
Where no end group is shown, it is not given here.

Tests used:
[1] = Circular dichroic spectroscopy (CD), thermal unfolding of CLP triple helix; type: physicochemical; details: first derivative of CD melting curve
Protocol: (§1) The ability of the CLP domain to form stable triple helix at physiological temperature while conjugated to the ELP was probed via circular dichroic spectroscopy (CD). The CD spectra of ELP-CLP at temperatures ranging from 5° C. to 80° C. […] Presumably, the collapse of the ELP domain at the elevated temperatures anchors the CLP and stabilizes it against unfolding, similar to our previously reported results for a polymer-conjugated CLP. The refolding of the CLP triple helix (FIGS. 2c and 2d) is likewise accelerated by the ELP anchoring of the CLP, owing to the increase in the local concentration of the CLP strands.

[2] = CD refolding of CLP triple helix after quenching from 80° C. to 5° C.; type: physicochemical
Protocol: as §1

[3] = Dynamic light scattering (DLS) of assemblies upon heating; type: physicochemical; details: ELP alone, 1 mg/mL in water
Protocol: (A) ELP at 1 mg/mL in water; (B) ELP and CLP physical mixture at 0.5 mg/mL each in water.
The anticipated assembly of ELP-CLP nanostructures at physiologically relevant temperatures was confirmed via dynamic light scattering (DLS) (FIG. 3). In contrast to our expectations that nanoparticle formation would be triggered at near physiological temperature, however, the conjugates formed structures with hydrodynamic diameters (Dh) that ranged from approximately 50 to 200 nm at all temperatures between 4° C. and 65° C. (FIG. 3a), with a Dh of approximately 160 nm at 37° C. (FIG. 3b).
The anchoring of the ELP by the noncovalent formation of CLP triple helix, however, should offer unique and as yet unreported opportunities to reversibly modulate the transition temperatures of the ELP domain and to thus confer dual thermoresponsiveness to the conjugates. Indeed, after an initial increase in the Dh of the ELP-CLP nanoparticles with heating to 50° C. (FIG. 3), Dh begins to decrease once the sample is heated above this temperature, which is also approximately the melting temperature of the CLP (FIG. 2b). With additional heating to 80° C., the CLP unfolds completely (FIG. 2b), and the nanoparticles become fully solubilized as monomers with an average Dh of only 5.6 nm (FIG. 3b). […]

[4] = test system: TNF-α production from RAW264.7 macrophages; assay: TNF-α ELISA, RAW264.7 macrophages (inflammation response); type: cell-based
Protocol: Blank PBS was used as a negative control and lipopolysaccharide (LPS, 50 ng/mL) was used as a positive control; and (B) TNF-α production from RAW264.7 macrophages, treated with ELP-CLP nanoparticles at various concentrations. Blank PBS was used as a negative control and lipopolysaccharide (LPS, 50 ng/mL) was used as a positive control.
(B) Viability of NIH-3T3 fibroblasts (8,000 cells/cm^2 in DMEM/10% FBS); live/dead overlay shown. (C) TNF-α production from RAW264.7 murine macrophage-like cell culture (15,000 cells/cm^2 in DMEM/10% FBS) in the presence of various concentrations of CLP-ELP nanoparticles.
RAW264.7 murine macrophages were purchased from American Type Culture Collection (ATCC) and were cultured in DMEM (Sigma Aldrich) supplemented with 10% heat-inactivated fetal bovine serum (MediaTech), 10 mM HEPES (GIBCO), 55 μM β-mercaptoethanol (GIBCO), and 1% antibiotic/antimycotic (GIBCO) at 37° C. with 5% CO2. […] Cell metabolism post-treatment was assayed using PrestoBlue Viability Assay (Life Technologies), which provides a fluorescence measurement of the overall reductive capability of the cells, according to the manufacturer's instructions. […] After 2 h of incubation at 37° C., the medium was collected and analyzed using a PerkinElmer VICTOR3 1420 Multilabel Plate Reader (PerkinElmer, Waltham, Mass.) at excitation/emission wavelengths of 570 nm/615 nm. […]

Question: Which results are given for (GPO)4GFOGER(GPO)4GG [CLP]?
Answer: Tm (unfolding of CLP triple helix) [1]: ca. 50 °C; rate constant of triple helix refolding reaction [2]: 1.14×10^7 M^−2·s^−1

Question: For “(VPGFG)6 (VPGFGVPGFGVPGFGVPGFGVPGFGVPGFG; also: alkyne functionalization, site not given here) [ELP]”, which “inverse transition / aggregation upon heating” value [3] is on record?
Answer: does not undergo a transition

Question: What does the source list for lipopolysaccharide [LPS]?
Answer: TNF-α expression ([4]; FIG. 18C, 15,000 cells/cm^2, various concentrations): elevated TNF-α expression; TNF-α expression ([4]; nanoparticles 50-1000 μg/mL, LPS 50 ng/mL, 8 h): high levels of TNF-α expression
